Test [1] deals with cGMP-inhibited 3',5'-cyclic phosphodiesterase 3A (Homo sapiens, UniProt Q14432). The test can be described thus: Inhibition of human recombinant PDE3A using FAM-cAMP as substrate incubated for 60 mins by fluorescence polarization method.
The target of test [2] is cGMP-specific 3',5'-cyclic phosphodiesterase (Homo sapiens, UniProt O76074). The test can be described thus: Inhibition of human recombinant PDE5A1 using FAM-cGMP as substrate incubated for 60 mins by fluorescence polarization method.
The subject of another test is HeLa. The test can be described thus: Cytotoxicity against human HeLa cells. The class given is functional, cell-based.
Test [3] concerns A549. Kind of test: Cytotoxicity against human A549 cells. The class given is functional, cell-based.
In another test the test system is K562. Kind of test: Cytotoxicity against human K562 cells. The class given is functional, cell-based.
A further test deals with SGC-7901. The test can be described thus: Cytotoxicity against human SGC-7901 cells. It is filed as functional, cell-based.
The test system of the next test is Bel-7402. Kind of test: Cytotoxicity against human Bel-7402 cells. The class given is functional, cell-based.
For test [4], the target named is T1, Acetylcholinesterase (Homo sapiens, UniProt P22303). The test can be described thus: Inhibition of AChE (unknown origin) by spectrophotometric based Ellman's method.
A further test has as its system Staphylococcus aureus. The test can be described thus: Antibacterial activity against methicillin-resistant Staphylococcus aureus assessed as inhibition of bacterial growth incubated for 24 hrs by broth microdilution assay. The class given is functional, organism-based.
Another test relates to RAW264.7. The test can be described thus: Inhibition of NO production in LPS stimulated mouse RAW264.7 cells by Griess reagent based analysis. It is filed as functional, cell-based.
For test [5], the target named is Nuclear factor NF-kappa-B complex (Homo sapiens) (UniProt Q00653+P19838+Q04206). The test can be described thus: Inhibition of LPS induced NF-kappaB activation (unknown origin) assessed as relative luciferase activity. It is filed as protein-complex assay.
The nature of test [6]: Antioxidant activity assessed as inhibition of DPPH radical scavenging activity by measuring reduction in absorbance at 100 uM by spectrophotometric analysis relative to control. The class given is functional.
For test [7], the system named is A549. Kind of test: Cytotoxicity against human A549 cells by MTT assay. The class given is functional, cell-based.
For another test, the target named is Mushroom tyrosinase (Agaricus bisporus, UniProt O42713+Q00024+C7FF04+C7FF05). Kind of test: Inhibition of mushroom tyrosinase activity using L-tyrosine as substrate preincubated for 5 mins followed by substrate addition and measured after 20 mins by microplate reader analysis.
Test [8] addresses T1, Acetylcholinesterase. The conditions noted are these: dose 50.0 mg/ml, time 1.0 hrs.

T1 sequence (P22303 whole entry): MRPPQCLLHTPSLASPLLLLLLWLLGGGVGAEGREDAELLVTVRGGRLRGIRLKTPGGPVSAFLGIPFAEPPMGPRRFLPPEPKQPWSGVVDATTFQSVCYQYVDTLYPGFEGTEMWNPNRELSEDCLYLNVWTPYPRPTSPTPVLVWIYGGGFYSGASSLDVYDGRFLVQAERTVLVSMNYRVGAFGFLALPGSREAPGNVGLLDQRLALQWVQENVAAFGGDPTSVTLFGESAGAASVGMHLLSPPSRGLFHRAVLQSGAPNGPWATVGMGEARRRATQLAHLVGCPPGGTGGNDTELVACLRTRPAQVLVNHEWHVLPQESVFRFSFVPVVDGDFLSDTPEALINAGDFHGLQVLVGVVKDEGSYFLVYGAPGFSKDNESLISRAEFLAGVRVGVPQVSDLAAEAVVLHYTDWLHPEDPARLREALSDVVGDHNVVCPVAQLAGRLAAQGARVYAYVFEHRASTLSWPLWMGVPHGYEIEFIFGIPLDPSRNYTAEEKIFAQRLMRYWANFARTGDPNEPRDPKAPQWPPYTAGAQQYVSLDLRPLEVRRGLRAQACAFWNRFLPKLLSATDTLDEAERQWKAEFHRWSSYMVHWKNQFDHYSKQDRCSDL
Nuclear factor NF-kappa-B complex (Homo sapiens), sequence (P19838 whole entry, looked up): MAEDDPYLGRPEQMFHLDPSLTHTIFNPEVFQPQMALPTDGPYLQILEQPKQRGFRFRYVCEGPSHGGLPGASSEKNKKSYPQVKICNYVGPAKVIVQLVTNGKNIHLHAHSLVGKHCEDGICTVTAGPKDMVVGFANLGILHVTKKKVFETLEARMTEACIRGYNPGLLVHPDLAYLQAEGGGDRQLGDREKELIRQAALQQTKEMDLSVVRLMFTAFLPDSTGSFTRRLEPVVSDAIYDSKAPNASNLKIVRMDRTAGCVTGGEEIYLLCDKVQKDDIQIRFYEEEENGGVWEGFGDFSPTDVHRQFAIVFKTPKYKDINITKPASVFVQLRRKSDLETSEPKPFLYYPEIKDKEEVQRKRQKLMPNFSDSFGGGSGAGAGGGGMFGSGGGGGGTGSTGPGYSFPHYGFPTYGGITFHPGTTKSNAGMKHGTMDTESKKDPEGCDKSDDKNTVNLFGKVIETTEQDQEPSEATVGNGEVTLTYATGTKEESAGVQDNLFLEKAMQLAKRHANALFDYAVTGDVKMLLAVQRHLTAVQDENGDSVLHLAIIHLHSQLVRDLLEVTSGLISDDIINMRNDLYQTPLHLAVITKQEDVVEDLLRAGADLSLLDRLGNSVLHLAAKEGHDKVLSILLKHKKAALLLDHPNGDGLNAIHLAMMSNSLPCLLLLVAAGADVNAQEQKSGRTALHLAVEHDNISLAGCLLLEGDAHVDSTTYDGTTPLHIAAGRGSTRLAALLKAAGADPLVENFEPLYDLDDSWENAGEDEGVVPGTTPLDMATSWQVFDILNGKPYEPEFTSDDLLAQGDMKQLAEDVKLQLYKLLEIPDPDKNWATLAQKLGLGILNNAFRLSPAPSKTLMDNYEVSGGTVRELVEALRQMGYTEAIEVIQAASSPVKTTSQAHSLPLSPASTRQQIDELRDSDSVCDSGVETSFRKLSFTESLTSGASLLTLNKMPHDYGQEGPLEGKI
Nuclear factor NF-kappa-B complex (Homo sapiens), sequence (Q00653 whole entry, looked up): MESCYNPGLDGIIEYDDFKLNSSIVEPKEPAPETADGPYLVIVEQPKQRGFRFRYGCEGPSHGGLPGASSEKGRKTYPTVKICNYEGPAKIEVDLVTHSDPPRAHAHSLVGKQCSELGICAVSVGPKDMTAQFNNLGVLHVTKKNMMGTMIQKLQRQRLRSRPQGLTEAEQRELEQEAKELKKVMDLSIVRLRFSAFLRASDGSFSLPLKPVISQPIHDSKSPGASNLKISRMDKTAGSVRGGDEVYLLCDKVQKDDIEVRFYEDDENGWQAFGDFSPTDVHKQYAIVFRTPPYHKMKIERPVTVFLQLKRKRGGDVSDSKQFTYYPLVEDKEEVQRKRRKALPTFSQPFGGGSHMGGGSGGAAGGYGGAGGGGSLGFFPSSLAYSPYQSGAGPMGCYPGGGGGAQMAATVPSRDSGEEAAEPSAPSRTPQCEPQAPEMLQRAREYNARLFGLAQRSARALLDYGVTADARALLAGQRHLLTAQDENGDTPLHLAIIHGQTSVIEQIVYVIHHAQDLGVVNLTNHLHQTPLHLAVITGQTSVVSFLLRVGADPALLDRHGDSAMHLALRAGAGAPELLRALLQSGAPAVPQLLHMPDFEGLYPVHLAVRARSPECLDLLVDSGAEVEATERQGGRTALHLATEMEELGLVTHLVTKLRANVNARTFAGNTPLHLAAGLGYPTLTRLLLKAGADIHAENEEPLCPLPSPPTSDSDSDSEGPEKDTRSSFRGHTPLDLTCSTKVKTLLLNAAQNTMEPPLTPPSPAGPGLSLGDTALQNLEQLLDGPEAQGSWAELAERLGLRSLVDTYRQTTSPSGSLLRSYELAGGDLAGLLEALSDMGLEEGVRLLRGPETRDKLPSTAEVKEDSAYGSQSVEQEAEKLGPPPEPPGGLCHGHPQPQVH
Nuclear factor NF-kappa-B complex (Homo sapiens), sequence (Q04206 whole entry, looked up): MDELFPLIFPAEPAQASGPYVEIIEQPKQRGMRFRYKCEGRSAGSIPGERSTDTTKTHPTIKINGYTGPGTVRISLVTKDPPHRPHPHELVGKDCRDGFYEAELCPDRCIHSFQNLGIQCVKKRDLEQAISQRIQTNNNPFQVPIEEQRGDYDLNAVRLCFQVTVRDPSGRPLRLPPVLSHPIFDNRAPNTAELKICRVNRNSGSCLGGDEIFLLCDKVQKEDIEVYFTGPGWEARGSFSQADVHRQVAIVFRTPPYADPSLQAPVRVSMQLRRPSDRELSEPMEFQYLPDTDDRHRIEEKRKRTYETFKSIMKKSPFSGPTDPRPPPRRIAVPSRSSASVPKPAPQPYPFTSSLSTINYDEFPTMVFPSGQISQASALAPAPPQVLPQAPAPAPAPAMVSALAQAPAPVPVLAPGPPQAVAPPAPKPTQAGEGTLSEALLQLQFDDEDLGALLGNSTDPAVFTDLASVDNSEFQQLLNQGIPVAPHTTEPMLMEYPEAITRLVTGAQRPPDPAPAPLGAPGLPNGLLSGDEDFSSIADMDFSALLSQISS
cGMP-inhibited 3',5'-cyclic phosphodiesterase 3A, sequence (Q14432 whole entry): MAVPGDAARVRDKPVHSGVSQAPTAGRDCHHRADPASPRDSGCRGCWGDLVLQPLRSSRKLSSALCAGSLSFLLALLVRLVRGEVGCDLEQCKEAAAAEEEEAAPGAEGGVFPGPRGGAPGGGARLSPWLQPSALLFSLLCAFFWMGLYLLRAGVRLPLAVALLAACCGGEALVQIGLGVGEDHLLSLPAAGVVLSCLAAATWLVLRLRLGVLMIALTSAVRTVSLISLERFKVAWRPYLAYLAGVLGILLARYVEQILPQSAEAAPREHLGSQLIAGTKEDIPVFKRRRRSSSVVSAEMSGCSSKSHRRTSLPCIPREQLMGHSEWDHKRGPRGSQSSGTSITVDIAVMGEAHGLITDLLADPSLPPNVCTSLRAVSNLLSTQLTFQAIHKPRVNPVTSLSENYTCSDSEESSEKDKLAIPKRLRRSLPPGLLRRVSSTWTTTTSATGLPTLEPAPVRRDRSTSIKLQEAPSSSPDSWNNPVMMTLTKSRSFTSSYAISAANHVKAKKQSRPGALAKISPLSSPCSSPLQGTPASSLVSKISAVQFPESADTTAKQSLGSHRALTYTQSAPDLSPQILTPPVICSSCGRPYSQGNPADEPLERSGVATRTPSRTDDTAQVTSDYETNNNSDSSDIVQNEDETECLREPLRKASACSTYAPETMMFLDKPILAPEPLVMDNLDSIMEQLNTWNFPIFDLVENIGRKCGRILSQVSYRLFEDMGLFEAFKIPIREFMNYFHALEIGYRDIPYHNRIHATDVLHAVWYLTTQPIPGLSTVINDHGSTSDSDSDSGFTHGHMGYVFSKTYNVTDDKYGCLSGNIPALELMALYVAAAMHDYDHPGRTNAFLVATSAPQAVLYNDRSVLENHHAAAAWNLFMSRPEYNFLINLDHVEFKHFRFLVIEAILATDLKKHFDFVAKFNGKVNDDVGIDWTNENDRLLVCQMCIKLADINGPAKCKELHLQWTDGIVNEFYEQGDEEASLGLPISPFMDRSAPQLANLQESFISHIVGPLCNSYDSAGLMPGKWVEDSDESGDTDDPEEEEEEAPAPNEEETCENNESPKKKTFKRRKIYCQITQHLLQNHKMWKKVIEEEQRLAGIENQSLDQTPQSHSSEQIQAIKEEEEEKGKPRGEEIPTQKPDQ

Turning to `O=C(CCc1ccccc1)O[C@@H]1c2oc(CCc3ccccc3)cc(=O)c2[C@H](O)[C@@H](O)[C@H]1O`, the IC50 in [1] stood at 42.6 µM; in test [2], 15.1 µM.

On to `O=c1cc(CCc2ccccc2)oc2c1[C@@H]1c3c(ccc4oc(CCc5ccccc5)cc(=O)c34)O[C@@H]([C@@H]1O)[C@H]2O`, for which the IC50 with HeLa, with A549 [3], in the test on K562 and in the test on SGC-7901 was 10.9 µM in each case.

Turning to `C=C(CO[C@H]1c2c(oc(CCc3ccc(OC)cc3)cc2=O)[C@H]2O[C@H]2[C@H]1O)[C@@H]1CC[C@]2(C)CCC[C@H](C)[C@@]2(C)C1`, the IC50 in the test with HeLa, with A549 [3], in the test with K562 and in the test on SGC-7901 was 10.9 µM throughout.

On to `COc1ccc(CCc2cc(=O)c3c(o2)[C@H](O)[C@H]2Oc4cc5oc(CCc6ccc(OC)cc6)cc(=O)c5cc4O[C@@H]3[C@H]2O)cc1`, for which the half-inhibitory concentration (IC50) with Bel-7402 was 42.1 µM.

For the compound `COc1ccc(CCc2cc(=O)c3c(o2)[C@H]2O[C@H]2[C@@H](O)[C@H]3OC)cc1`, on Acetylcholinesterase [4], 156 µM corresponded to half-maximal inhibition (IC50).

Take `O=c1cc(CCc2ccccc2)oc2c(O)ccc(O)c12`: the IC50 with Staphylococcus aureus came to 220 µM; with RAW264.7, 1.6 µM.

As to `COc1cc2oc(CCc3ccccc3)cc(=O)c2cc1O`, in [5], the IC amounted to 0.31 µM.

In the case of `O=c1cc(CCc2ccc(O)c(O)c2)oc2cc(O)cc(O)c12`, the inhibition in [6] is 91.2%.

In turn, `C/C1=C\CC/C(C(=O)O[C@@H]2c3oc(CCc4ccccc4)cc(=O)c3[C@H](O)[C@@H](O)[C@H]2O)=C/CC(C)(C)/C=C/C1` returned an IC50 in the test with A549 [7] of 17.6 µM.

Turning to `COc1ccc(CCc2cc(=O)c3c(O)c(O)ccc3o2)cc1O`, in test [5], the IC turned out to be 0.31 µM.

Turning to `C=C(CO[C@H]1c2c(oc(CCc3ccccc3)cc2=O)[C@H]2O[C@H]2[C@H]1O)[C@@H]1CC[C@@]2(O)CCCC[C@@]2(C)C1`, the IC50 in the test on HeLa, in the test on A549 [3], with K562 and with SGC-7901 was 10.9 µM in each case.

As for `COc1ccc(CCc2cc(=O)c3cc(O)c(OC)cc3o2)cc1O`, the half-inhibitory concentration (IC50) at Mushroom tyrosinase was 89 µM.

As for `COc1ccc(CCc2cc(=O)c3cc(O)c(O)cc3o2)cc1`, the IC50 in the test on K562, with SGC-7901 and in the test on Bel-7402 was 5.76 µM in each case.

On to `COc1ccc(CCc2cc(=O)c3c(o2)[C@H]2O[C@H]2[C@@H](O)[C@H]3OC)cc1O`, for which, on Acetylcholinesterase [4], the IC50 stood at 442 µM.

For the compound `COc1ccc(CCc2cc(=O)c3cc(O)c(O[C@@H]4c5oc(CCc6ccccc6)cc(=O)c5[C@H](O)[C@@H](O)[C@H]4O)cc3o2)cc1`, in test [2], the IC50 stood at 4.3 µM.

For `O=c1cc(CCc2ccccc2)oc2c1[C@H](O)[C@@H](O)[C@@H](O)[C@@H]2Oc1cc2oc(CCc3ccccc3)cc(=O)c2cc1O`, the 50% inhibitory concentration (IC50) in test [2] was found to be 4.2 µM.

With `COc1ccc(CCc2cc(=O)c3c(O)ccc(OC)c3o2)cc1`, in the test with Staphylococcus aureus, the IC50 was 220 µM.

For the compound `COc1ccc(CCc2cc(=O)c3cc(O)cc(O)c3o2)cc1`, at Mushroom tyrosinase, the IC50 came out at 51.5 µM.

The compound `COc1ccc(CCc2cc(=O)c3cc4c(cc3o2)O[C@H]2c3c(oc(CCc5ccccc5)cc3=O)[C@H](O)[C@@H](O4)[C@@H]2O)cc1` had an IC50 in the test on Bel-7402 of 44.7 µM.

For `O=c1cc(CCc2ccccc2)oc2c1[C@H](O)[C@@H](O)[C@H]1O[C@@H]21`, the inhibition against Acetylcholinesterase [8] was 17.5%.

As to `C=C(C)[C@H]1CC[C@@]2(C)CCC=C(C(=O)O[C@H]3c4oc(CCc5ccccc5)cc(=O)c4[C@@H](O)[C@H](O)[C@@H]3O)[C@H]2C1`, it took 17.6 µM to reach half-maximal inhibition in the test with A549 [7] (IC50).

With `O=c1cc(CCc2ccccc2)oc2c1[C@H]1c3c(ccc4oc(CCc5ccccc5)cc(=O)c34)O[C@H]([C@H]1O)[C@@H]2O`, the IC50 in the test with HeLa, in the test with A549 [3], in the test on K562 and in the test with SGC-7901 was 10.9 µM throughout.

For `C=C(C)[C@H]1CC[C@@]2(C)CCCC(C(=O)O[C@H]3c4oc(CCc5ccccc5)cc(=O)c4[C@@H](O)[C@H](O)[C@@H]3O)=C2C1`, half-maximal inhibition in the test with A549 [7] (IC50) was put at 17.6 µM.

As for `O=c1cc(CCc2ccccc2)oc2c1[C@H](O)[C@H](O)[C@H](O)[C@H]2Cl`, in the test on RAW264.7, the midpoint of inhibition, the IC50, lay at 1.6 µM.

`COc1ccc(CCc2cc(=O)c3c(o2)[C@@H](O)[C@H](O)[C@H](O)[C@H]3OC)cc1` registered an inhibition at Acetylcholinesterase [8] of 17.5%.

`COc1ccc(CCc2cc(=O)c3c(o2)[C@@H](Oc2cc(O)cc4c(=O)cc(CCc5ccccc5)oc24)[C@H](O)[C@H](O)[C@H]3O)cc1`: in [2], the IC50 was found to be 7.9 µM.

For `COc1ccc(CCc2cc(=O)c3cc(O)c(OC)cc3o2)cc1`, the IC50 with K562, in the test with SGC-7901 and in the test on Bel-7402 was 5.76 µM each time.

`COc1ccc(CCc2cc(=O)c3c(o2)[C@H](Cl)[C@H](O)[C@H](O)[C@@H]3O)cc1` registered an IC50 in the test on RAW264.7 of 1.6 µM.

Turning to `CCCOC(=O)c1cc(O)c(O)c(O)c1`, the inhibition in test [6] was determined as 97.4%.

`O=c1cc(CCc2ccccc2)oc2cc(O)c(O)cc12`: the IC50 in the test on K562, in the test on SGC-7901 and in the test on Bel-7402 was 5.76 µM throughout.

`COc1ccc(CCc2cc(=O)c3c(o2)[C@@H](O)[C@H](O)[C@@H]2O[C@H]32)cc1` returned an IC50 in the test on RAW264.7 of 1.6 µM.

For the compound `COc1ccc(CCc2cc(=O)c3c(o2)[C@H](Cl)[C@@H](O)[C@@H](O)[C@H]3O)cc1`, the IC50 with RAW264.7 was 1.6 µM.

Consider `COc1ccc(CCc2cc(=O)c3cc(OC)c(O)cc3o2)cc1`, for which, in the test with Staphylococcus aureus, the IC50 stood at 220 µM.

With `COc1ccc(CCc2cc(=O)c3cc(OC)c(OC)cc3o2)cc1`, in [5], the IC turned out to be 0.31 µM.

The compound `COc1ccc(CCc2cc(=O)c3c(o2)[C@H]2O[C@H]2[C@@H](O)[C@@H]3O)cc1` yielded an inhibition against Acetylcholinesterase [8] of 17.5%.

At Acetylcholinesterase [8], `CO[C@@H]1c2c(oc(CCc3ccccc3)cc2=O)[C@H](O)[C@@H](O)[C@H]1O` registered an inhibition of 17.5%.

As to `COc1ccc(CCc2cc(=O)c3c(o2)[C@H]2O[C@H]2[C@@H](O)[C@@H]3O)cc1O`, the inhibition at Acetylcholinesterase [8] came to 17.5%.

As for `O=c1cc(CCc2ccc(O)cc2)oc2cc(OC3O[C@H](CO)[C@@H](O)[C@H](O)[C@H]3O)cc(O)c12` (stereo partly drawn), the inhibition in test [6] is 56.1%.

Turning to `COc1cc(C[C@@H](O)c2cc(=O)c3c(O)cc(O)cc3o2)ccc1O`, the inhibition in test [6] was determined as 56.1%.

In the case of `COc1ccc2c(=O)cc(CCc3ccccc3)oc2c1`, in test [5], the IC came out at 0.31 µM.

Consider `COc1ccc(CCc2cc(=O)c3c(o2)[C@@H]2O[C@@H]2[C@@H]2O[C@H]32)cc1O`, for which the inhibition on Acetylcholinesterase [8] is 17.5%.

In the case of `O=c1cc(CCc2ccc(O)cc2)oc2cc(O)cc(O)c12`, in [6], the inhibition is 56.1%.

Regarding `O=c1cc(CCc2ccccc2)oc2c(O)cc(O)cc12`, the IC50 in the test with Staphylococcus aureus was determined as 220 µM.
